Source: the supplement of paper PMC11451515

System: SEM cells
Assay: cell viability relative to DMSO control; higher = less cytotoxic
Conditions: 48 h
Summary of the method: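 Before seeding, each leukemia line was adapted for at least four passages in each medium. NOMO1 or SEM cells (500 cells/well) and P12-Ichikawa cells (1000 cells/well) went into 1536-well plates at 5 μl, then received library compounds in DMSO by pin dosing across 11 threefold concentrations, 47 μM to 0.79 nM. Readout was CellTiter-Glo One luminescence after 48 h at 37°C, and viability is given as a per-plate percentage of DMSO wells, with cell-free wells as background.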

[1] = HPLM + 10% dialyzed FBS, 0.000781 µM
[2] = HPLM + 10% dialyzed FBS, 0.00234 µM
[3] = HPLM + 10% dialyzed FBS, 0.00702 µM
[4] = HPLM + 10% dialyzed FBS, 0.0211 µM
[5] = HPLM + 10% dialyzed FBS, 0.0632 µM
[6] = HPLM + 10% dialyzed FBS, 0.19 µM
[7] = HPLM + 10% dialyzed FBS, 0.569 µM
[8] = HPLM + 10% dialyzed FBS, 1.71 µM
[9] = HPLM + 10% dialyzed FBS, 5.12 µM
[10] = HPLM + 10% dialyzed FBS, 15.4 µM
[11] = HPLM + 10% dialyzed FBS, 46.1 µM
[12] = RPMI 5 mM glucose + 10% FBS, 0.000781 µM
[13] = RPMI 5 mM glucose + 10% FBS, 0.00234 µM
[14] = RPMI 5 mM glucose + 10% FBS, 0.00702 µM
[15] = RPMI 5 mM glucose + 10% FBS, 0.0211 µM
[16] = RPMI 5 mM glucose + 10% FBS, 0.0632 µM
[17] = RPMI 5 mM glucose + 10% FBS, 0.19 µM
[18] = RPMI 5 mM glucose + 10% FBS, 0.569 µM
[19] = RPMI 5 mM glucose + 10% FBS, 1.71 µM
[20] = RPMI 5 mM glucose + 10% FBS, 5.12 µM
[21] = RPMI 5 mM glucose + 10% FBS, 15.4 µM
[22] = RPMI 5 mM glucose + 10% FBS, 46.1 µM
[23] = RPMI 5 mM glucose + 10% dialyzed FBS, 0.000781 µM
[24] = RPMI 5 mM glucose + 10% dialyzed FBS, 0.00234 µM
[25] = RPMI 5 mM glucose + 10% dialyzed FBS, 0.00702 µM
[26] = RPMI 5 mM glucose + 10% dialyzed FBS, 0.0211 µM
[27] = RPMI 5 mM glucose + 10% dialyzed FBS, 0.0632 µM
[28] = RPMI 5 mM glucose + 10% dialyzed FBS, 0.19 µM
[29] = RPMI 5 mM glucose + 10% dialyzed FBS, 0.569 µM
[30] = RPMI 5 mM glucose + 10% dialyzed FBS, 1.71 µM
[31] = RPMI 5 mM glucose + 10% dialyzed FBS, 5.12 µM
[32] = RPMI 5 mM glucose + 10% dialyzed FBS, 15.4 µM
[33] = RPMI 5 mM glucose + 10% dialyzed FBS, 46.1 µM

Row | Compound | cell viability [1] [%] | cell viability [2] [%] | cell viability [3] [%] | cell viability [4] [%] | cell viability [5] [%] | cell viability [6] [%] | cell viability [7] [%] | cell viability [8] [%] | cell viability [9] [%] | cell viability [10] [%] | cell viability [11] [%] | cell viability [12] [%] | cell viability [13] [%] | cell viability [14] [%] | cell viability [15] [%] | cell viability [16] [%] | cell viability [17] [%] | cell viability [18] [%] | cell viability [19] [%] | cell viability [20] [%] | cell viability [21] [%] | cell viability [22] [%] | cell viability [23] [%] | cell viability [24] [%] | cell viability [25] [%] | cell viability [26] [%] | cell viability [27] [%] | cell viability [28] [%] | cell viability [29] [%] | cell viability [30] [%] | cell viability [31] [%] | cell viability [32] [%] | cell viability [33] [%]
1 | OC(=O)CNC(=O)\C1=C(/O)C2=CC=CC=C2N(CC3=CC=CC=C3)C1=O | 106 | 104 | 105 | 125 | 54 | 99.2 | 116 | 104 | 111 | 102 | 106 | 98.1 | 103 | 117 | 112 | 17.9 | 104 | 107 | 94.7 | 106 | 97.4 | 88.9 | 121 | 116 | 111 | 106 | 89.3 | 117 | 119 | 114 | 105 | 86.3 | 109
2 | CCn1c(C(=O)N(C2CC2)C2CC2)cc2c3c(ncn3C)c(Nc3cc(C)n(C)n3)nc21 | 75.8 | 100 | 113 | 99.9 | 107 | 101 | 99.9 | 106 | 94.3 | 78.8 | 55.3 | 71.3 | 114 | 119 | 121 | 119 | 123 | 110 | 106 | 93 | 91.3 | 26.7 | 75.7 | 109 | 117 | 107 | 104 | 100 | 102 | 112 | 82.8 | 66.8 | 34.1
3 | NC[C@H](O)c1ccc(O)c(O)c1 | 93.3 | 102 | 111 | 101 | 95.9 | 98.2 | 92 | 85.4 | 92.8 | 84.5 | 78.4 | 84 | 115 | 102 | 109 | 97.7 | 100 | 97 | 89.5 | 97.5 | 82.8 | 81.5 | 84.9 | 103 | 88.5 | 103 | 104 | 99.1 | 100 | 91.9 | 96.7 | 96.9 | 72.9
4 | CCCCN1CCC(CNC(=O)c2c3n(c4ccccc24)CCCO3)CC1 | 81.3 | 85.3 | 92.1 | 90.9 | 94.5 | 57.7 | 117 | 107 | 108 | 89.7 | 68.4 | 84.9 | 102 | 112 | 91.3 | 117 | 75.3 | 105 | 118 | 113 | 93.5 | 80.6 | 105 | 101 | 110 | 94.4 | 111 | 67.5 | 103 | 103 | 115 | 79 | 79.8
5 | CC1(C)CCC(C)(C)c2cc(NC(=O)c3ccc(C(=O)O)cc3)ccc21 | 88.1 | 107 | 98.5 | 107 | 115 | 101 | 124 | 110 | 104 | 120 | 97.4 | 100 | 93.3 | 111 | 115 | 119 | 111 | 113 | 111 | 116 | 123 | 105 | 90.9 | 92.4 | 84.7 | 95.6 | 91.9 | 93 | 103 | 94.6 | 105 | 101 | 87.7
6 | O=C(NOCC1CC1)c1ccc(F)c(F)c1Nc1ccc(I)cc1Cl | 91 | 87.8 | 109 | 113 | 99.7 | 99.5 | 113 | 116 | 95.8 | 75.5 | 77.1 | 95.8 | 93.7 | 112 | 108 | 94.7 | 93.8 | 106 | 94.2 | 85.5 | 67.3 | 53.1 | 101 | 89.9 | 115 | 104 | 102 | 78.2 | 103 | 89.6 | 84.8 | 59.7 | 59.7
7 | CN(C)c1ccc(-c2nc3c(N4CCN(CC(=O)Nc5nccs5)CC4)c(Cl)cnc3[nH]2)cc1 | 129 | 102 | 115 | 112 | 115 | 112 | 109 | 86.9 | 105 | 80 | 58.8 | 103 | 118 | 130 | 107 | 106 | 124 | 107 | 87.7 | 92.5 | 70.3 | 51.2 | 105 | 121 | 120 | 116 | 107 | 111 | 102 | 89.7 | 97.9 | 71.1 | 49.6
8 | COc1cc(N2CCC(N3CCN(C)CC3)CC2)ccc1Nc1ncc(Cl)c(Nc2ccccc2[S+](=O)([O-])C(C)C)n1 | 50.9 | 55.6 | 75.8 | 89.1 | 127 | 84.1 | 89.4 | 19.3 | 22 | 17.5 | 13.6 | 48.1 | 57.5 | 93.2 | 105 | 117 | 84.1 | 72.7 | 16.1 | 12.9 | 8.26 | 4.14 | 58.8 | 63.1 | 86.6 | 117 | 119 | 86.2 | 90.1 | 17.8 | 14.9 | 15 | 11.9
9 | CC(C)(C)[C@]1(O)C[C@@H]2OC(=O)C[C@@]23C(=O)O[C@@H]2OC(=O)[C@H](O)C213 (stereo partly drawn) | 113 | 108 | 109 | 104 | 110 | 99.1 | 104 | 111 | 105 | 113 | 115 | 110 | 139 | 120 | 148 | 114 | 108 | 113 | 90.4 | 118 | 134 | 125 | – | – | – | – | – | – | – | – | – | – | –
10 | COc1ccc(/C=C/C(=O)Nc2ccccc2C(=O)O)cc1OC | – | – | – | – | – | – | – | – | – | – | – | 109 | 140 | 118 | 130 | 99.4 | 97.5 | 110 | 116 | 125 | 106 | 104 | 94.7 | 115 | 110 | 108 | 35.1 | 115 | 96.7 | 110 | 116 | 129 | 96.7
